Measured values from PubChem BioAssay (NCI).
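Test compounds were applied to cells in 96-well plates for 48 hours at 5 doses. TGI marks complete inhibition of growth.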

How the values were obtained:
Experiment in all cases: NCI anticancer screen, dose series, 48 h
[1] = test system: SNB-75 CNS
[2] = test system: HCT-116 colon
[3] = test system: MALME-3M melanoma
[4] = test system: A498 renal
[5] = test system: NCI-H460 lung
[6] = test system: SN12C renal
[7] = test system: ACHN renal
[8] = test system: HCT-15 colon
[9] = test system: U251 CNS
[10] = test system: TK-10 renal
[11] = test system: OVCAR-4 ovarian
[12] = test system: HOP-62 NSCLC
[13] = test system: NCI/ADR-RES ovarian
[14] = test system: OVCAR-8 ovarian
[15] = test system: T-47D breast
[16] = test system: SF-268 CNS
[17] = test system: MDA-MB-231 breast
[18] = test system: HL-60(TB) leukemia
[19] = test system: DU-145 prostate
[20] = test system: K-562 leukemia
[21] = test system: UO-31 renal
[22] = test system: M14 melanoma
[23] = test system: COLO 205 colon
[24] = test system: HT29 colon
[25] = test system: OVCAR-5 ovarian
[26] = test system: NCI-H226 lung
[27] = test system: MOLT-4 leukemia
[28] = test system: BT-549 breast
[29] = test system: SF-295 CNS
[30] = test system: RXF 393 renal
[31] = test system: KM12 colon
[32] = test system: EKVX NSCLC
[33] = test system: RPMI-8226 leukemia
[34] = test system: MDA-MB-435
[35] = test system: UACC-62 melanoma
[36] = test system: A549 NSCLC
[37] = test system: SK-MEL-2 melanoma
[38] = test system: 786-0 renal
[39] = test system: OVCAR-3 ovarian
[40] = test system: IGROV1 ovarian
[41] = test system: SK-OV-3 ovarian
[42] = test system: SK-MEL-28 melanoma
[43] = test system: PC-3 prostate
[44] = test system: LOX IMVI melanoma
[45] = test system: CCRF-CEM leukemia
[46] = test system: SW-620 colon
[47] = test system: HOP-92 NSCLC
[48] = test system: CAKI-1 renal
[49] = test system: SF-539 CNS
[50] = test system: HS 578T breast
[51] = test system: SNB-19 CNS
[52] = test system: SK-MEL-5 melanoma
[53] = test system: NCI-H23 lung
[54] = test system: MCF7 breast
[55] = test system: HCC-2998 colon
[56] = test system: NCI-H522 lung
[57] = test system: UACC-257 melanoma

Measured: TGI

CCCOc1ccc2sc(NC(=O)c3cc([N+](=O)[O-])cc([N+](=O)[O-])c3)nc2c1
48.8 µM: [52]
89.7 µM: [2]
83.1 µM: [1]
58.8 µM: [11]
61.5 µM: [13]
68.3 µM: [39] | [44]
79.3 µM: [3]
39.4 µM: [50]
82.3 µM: [53]
49.6 µM: [47]
76.9 µM: [4]
57.7 µM: [21]
35.7 µM: [40]
not listed: [55] | [56] | [57]
> 100 µM: all other assays above

COC(=O)CCCC(=O)C1=Nc2ccccc2CN(c2ccc(Cl)cc2)N1
87.7 µM: [11]
49.5 µM: [15]
not listed: [3] | [5] | [18]
> 100 µM: all other assays above

NC(N)=Nc1ccc(CC(N)C(=O)NCC(=O)C(CC(=O)O)c2ncc(NC(=O)C(F)(F)F)o2)cc1 (stereo unspecified)
not listed: [20] | [27] | [47] | [51]
> 25 µM: all other assays above
